Key:
[1] = target: T1, Alpha-1A adrenergic receptor (Homo sapiens, UniProt P35348); assay: In vitro binding affinity towards cloned human Alpha-1A adrenergic receptor
T1 sequence (P35348 whole entry): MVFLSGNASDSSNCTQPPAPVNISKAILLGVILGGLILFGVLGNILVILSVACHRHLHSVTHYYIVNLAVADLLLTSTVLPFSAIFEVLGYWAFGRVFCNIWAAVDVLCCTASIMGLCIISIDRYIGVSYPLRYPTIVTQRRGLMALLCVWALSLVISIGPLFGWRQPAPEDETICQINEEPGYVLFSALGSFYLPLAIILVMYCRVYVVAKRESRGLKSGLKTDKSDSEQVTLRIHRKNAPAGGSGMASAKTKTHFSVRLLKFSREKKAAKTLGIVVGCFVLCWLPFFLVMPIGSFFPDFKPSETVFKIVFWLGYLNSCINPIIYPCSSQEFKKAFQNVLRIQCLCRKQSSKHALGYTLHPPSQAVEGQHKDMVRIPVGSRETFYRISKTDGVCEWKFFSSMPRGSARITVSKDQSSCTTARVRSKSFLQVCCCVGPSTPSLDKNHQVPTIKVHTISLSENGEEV

[2] = Bioavailability in dog (Beagle) (male) (dose 3 mg/kg i.v. and 10 mg/kg p.o.) measured from 1 to 24 hr; assay type: ADME, organism-based, Canis lupus familiaris; conditions: in vivo, po
[3] = target: T2, Alpha-1D adrenergic receptor (Homo sapiens, UniProt P25100); assay: In vitro binding affinity towards cloned human Alpha-1D adrenergic receptor
T2 sequence (P25100 whole entry): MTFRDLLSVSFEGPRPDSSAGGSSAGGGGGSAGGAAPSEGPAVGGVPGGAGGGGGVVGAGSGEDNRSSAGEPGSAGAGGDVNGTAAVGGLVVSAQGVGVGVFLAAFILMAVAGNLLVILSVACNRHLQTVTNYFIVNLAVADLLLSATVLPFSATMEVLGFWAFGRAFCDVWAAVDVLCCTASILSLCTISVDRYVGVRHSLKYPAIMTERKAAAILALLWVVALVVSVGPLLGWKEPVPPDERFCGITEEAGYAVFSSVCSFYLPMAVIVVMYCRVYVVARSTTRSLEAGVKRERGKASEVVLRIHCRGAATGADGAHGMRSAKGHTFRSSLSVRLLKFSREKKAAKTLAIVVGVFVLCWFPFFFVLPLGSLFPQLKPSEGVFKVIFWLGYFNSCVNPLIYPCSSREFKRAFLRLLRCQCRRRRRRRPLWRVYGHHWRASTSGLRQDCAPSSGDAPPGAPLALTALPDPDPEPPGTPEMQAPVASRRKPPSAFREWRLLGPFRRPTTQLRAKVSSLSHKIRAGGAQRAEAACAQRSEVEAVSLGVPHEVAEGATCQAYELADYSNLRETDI

[4] = Half-life in rats; assay type: ADME, organism-based; conditions: rat, in vivo
[5] = Half-life in dogs; assay type: ADME, organism-based, Canis lupus familiaris; conditions: dog, in vivo
[6] = target: T3, Alpha-1B adrenergic receptor (Homo sapiens, UniProt P35368); assay: In vitro binding affinity towards cloned human Alpha-1B adrenergic receptor
T3 sequence (P35368 whole entry): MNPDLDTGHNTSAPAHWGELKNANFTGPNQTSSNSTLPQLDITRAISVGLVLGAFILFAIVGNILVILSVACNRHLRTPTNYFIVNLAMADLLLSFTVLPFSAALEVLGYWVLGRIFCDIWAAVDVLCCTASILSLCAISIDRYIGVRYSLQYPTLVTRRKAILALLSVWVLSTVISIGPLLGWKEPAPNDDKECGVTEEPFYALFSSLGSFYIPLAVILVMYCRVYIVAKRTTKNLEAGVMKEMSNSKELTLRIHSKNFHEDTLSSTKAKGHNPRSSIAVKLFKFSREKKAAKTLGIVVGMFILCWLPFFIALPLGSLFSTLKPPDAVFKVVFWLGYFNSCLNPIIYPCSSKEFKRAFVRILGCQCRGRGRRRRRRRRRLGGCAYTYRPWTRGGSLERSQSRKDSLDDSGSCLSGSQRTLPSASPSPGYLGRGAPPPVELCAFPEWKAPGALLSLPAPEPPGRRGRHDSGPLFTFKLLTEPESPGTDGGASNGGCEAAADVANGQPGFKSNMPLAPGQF

[7] = Bioavailability in rat (Sprague-Dawley) (male) (dose 1 mg/kg i.v. and 3 mg/kg p.o.) measured from 0.3 to 6 hr; assay type: ADME, organism-based; conditions: in vivo, po

Ki [1] [nM]	bioavailability [2] [%]	Ki [3] [nM]	half-life [4] [min]	half-life [5] [min]	Ki [6] [nM]	bioavailability [7] [%]	SMILES
1.7	8	1500	150	78	1900	18	Cc1ccc(C2(c3ccc(C)cc3)CC(=O)N(CCCN3CCC(C#N)(c4ccccc4C)CC3)C2=O)cc1
77	–	> 5000	–	–	> 2000	–	Cc1ccc(C2(c3ccc(C)cc3)OC(=O)N(CCCN3CCC(C#N)(c4ccccc4C)CC3)C2=O)cc1
220	–	> 5000	–	–	> 2000	–	Cc1ccc(C2(c3ccc(C)cc3)CC(=S)N(CCCN3CCC(C#N)(c4ccccc4Cl)CC3)C2=O)cc1
0.48	11	220	39.6	102	98	19	Cc1ccc(C2(c3ccc(C)cc3)CC(=O)N(CCCN3CCC(C#N)(c4ccccc4Cl)CC3)C2=O)cc1
9.7	–	4100	–	–	1500	–	Cc1ccc(C2(c3ccc(C)cc3)CC(=O)N(CC(O)CN3CCC(C#N)(c4ccccc4C)CC3)C2=O)cc1 (centres undefined)

SMILES	Ki [1] [nM]	bioavailability [2] [%]	Ki [3] [nM]	half-life [4] [min]	half-life [5] [min]	Ki [6] [nM]	bioavailability [7] [%]
COC(=O)C1(c2ccccc2)CCN(CCCNC(=O)C(c2ccc(C)cc2)c2ccc(C)cc2)CC1	17	–	975	–	–	170	–
Cc1ccc(C(O)(C(=O)NCCCN2CCC(C#N)(c3ccccc3C)CC2)c2ccc(C)cc2)cc1	2	–	1500	78	–	570	< 1
Cc1ccc(C(O)(C(=O)NCCCN2CCC(C#N)(c3ccccc3)CC2)c2ccc(C)cc2)cc1	5.7	–	4800	–	–	1800	–

— ChEMBL document CHEMBL1134805, “Cyclic imides as potent and selective alpha-1A adrenergic receptor antagonists” (Bioorg Med Chem Lett, 2001)
